Holding throughout (assay type): functional
Assay [1] is filed under the species Rattus norvegicus. Description: Effective dose for antinociceptive activity in rats.
In assay [2] the test system is Rattus norvegicus. Description: Effective dose for antinociceptive activity in rat tail-withdrawal test i.v.
The next assay deals with Mus musculus. The experiment in a line: Effective dose for antinociceptive activity in mice hot plate test s.c. The following applies: sc.

Each structure is given as a SMILES string.

The ED50 is the midpoint of the dose-response relation. A high value points to a need for a large dose. On to `CCC(=O)O[C@@]1(c2ccccc2)CCN(C)CC1(C)C`, for which the 50% effect level in the assay filed under Rattus norvegicus [1] (ED50) was put at a dose of 0.5 mg/kg.

Regarding `CCC(=O)OC1(c2ccccc2)CCN(C)CC1(C)C` (racemic), the ED50 in the assay with Rattus norvegicus [2] is 0.63 mg/kg; in the assay on Mus musculus, 0.61 mg/kg.

In the case of `CCOC(=O)C1(c2ccccc2)CCN(C)CC1` [MEPERIDINE], the values for the ED50 with Rattus norvegicus [2] and in the assay with Mus musculus were 6.15 mg/kg and 4.1 mg/kg, respectively.
